Measured values reported in patent US11427567B2, “Imidazolyl pyrimidinylamine compounds as CDK2 inhibitors” (Incyte Corporation, priority 2019, dated 2022).
pIC50: −log10 of the molar value.

Each compound was assayed against CDK2/Cyclin E1 (Homo sapiens (Human), UniProt P24941) (assay: CDK2/Cyclin E1 HTRF enzyme activity assay (Example A)). Details: 1 mM ATP.
Assay type: biochemical
Procedure: Assays were conducted in white 384-well polystyrene plates in a final reaction volume of 8 μL. […] HTRF signals were read after 1 hour at room temperature on a PHERAstar FS plate reader (BMG Labtech). Data was analyzed with IDBS XLFit and GraphPad Prism 5.0 software using a three or four parameter dose response curve to determine IC50 for each compound.

pIC50, ≥ 7.30:
CN1CCN(Cc2cc(F)c(-n3cnc(-c4nc(N[C@H]5CCN(S(C)(=O)=O)C[C@H]5F)ncc4C(F)(F)F)c3)c(F)c2)CC1 [Example 443, 4-(1-(2,6-Difluoro-4((4-methylpiperazin-1-yl)methyl)phenyl)-1H-imidazol-4-yl)-N-((3R,4S)-3-fluoro-1-(methylsulfonyl)piperidin-4-yl)-5-(trifluoromethyl)pyrimidin-2-amine]
CC(C)(O)Cn1cnc(-c2nc(N[C@@H]3CCN(S(=O)(=O)C4CC4)C[C@H]3F)ncc2C(F)(F)F)c1 [Example 333, 1-(4-(2-(((3R,4R)-1-(Cyclopropylsulfonyl)-3-fluoropiperidin-4-yl)amino)-5-4-yl)-1H-imidazol-1-yl)-2-methylpropan-2-ol]
CNCc1cccc(-n2cnc(-c3nc(NC4CCN(S(C)(=O)=O)CC4)ncc3C(F)(F)F)c2)c1Cl [Example 80, 4-(1-(2-Chloro-3-((methylamino)methyl)phenyl)-1H-imidazol-4-yl)-N-(1-(methylsulfonyl)piperidin-4-yl)-5-(trifluoromethyl)pyrimidin-2-amine]
CS(=O)(=O)N1CCC(Nc2ncc(C(F)(F)F)c(-c3cn(-c4ccc(C#N)nc4C(F)(F)F)cn3)n2)CC1 [Example 99, 5-(4-(2-((1-(Methylsulfonyl)piperidin-4-yl)amino)-5-(trifluoromethyl)pyrimidin-4-yl)-1H-imidazol-1-yl)-6-(trifluoromethyl)picolinonitrile]
CCNCc1cccc(-n2cnc(-c3nc(NC4CCN(S(C)(=O)=O)CC4)ncc3C(F)(F)F)c2)c1Cl [Example 361, 4-(1-(2-Chloro-3-((ethylamino)methyl)phe-nyl)-1H-imidazol-4-yl)-N-(1-(methylsulfonyl)piperidin-4-yl)-5-(trifluoromethyl)pyrimi-din-2-amine]
CNCc1ccc(-n2cnc(-c3nc(NC4CCN(S(C)(=O)=O)CC4)ncc3C(F)(F)F)c2)c(C(F)F)n1 [Example 245, 4-(1-(2-(Difluoromethyl)-6-((methylamino)methyl)pyridin-3-yl)-1H-imidazol-4-yl)-N-(1-(methylsulfonyl)piperidin-4-yl)-5-(trifluoromethyl)pyrimidin-2-amine]
Cc1nc(-c2nc(N[C@H]3CCN(S(C)(=O)=O)C[C@H]3F)ncc2C(F)(F)F)cn1-c1ccncc1F [Example 298, N-((3R,4S)-3-Fluoro-1-(methylsulfonyl)piperidin-4-yl)-4-(1-(3-fluoropyridin-4-yl)-2-methyl-1H-imidazol-4-yl)-5-(trifluoromethyl)pyrimidin-2-amine]
CNc1nccc(-n2cnc(-c3nc(NC4CCN(S(C)(=O)=O)CC4)ncc3C(F)(F)F)c2)c1Cl [Example 322, 4-(1-(3-Chloro-2-(methylamino)pyridin-4-yl)-1H-imidazol-4-yl)-N-(1-(methylsulfonyl)piperidin-4-yl)-5-(trifluoromethyl)pyrimidin-2-amine]
Cc1c(-n2cnc(-c3nc(NC4CCN(S(=O)(=O)c5cn(C)cn5)CC4)ncc3C(F)(F)F)c2)ccnc1N [Example 9, 4-(1-(2-Amino-3-methylpyridin-4-yl)-1H-imidazol-4-yl)-N-(1-((1-methyl-1H-imidazol-4-yl)sulfonyl)piperidin-4-yl)-5-(trifluoromethyl)pyrimidin-2-amine]
CS(=O)(=O)N1CCC(Nc2ncc(C(F)(F)F)c(-c3cn(-c4ccc(CNCC5CC5)cc4Cl)cn3)n2)CC1 [Example 191, 4-(1-(2-Chloro-4-(((cyclopropylmethyl)-amino)methyl)phenyl)-1H-imidazol-4-yl)-N-(1-(methylsulfonyl)-piperidin-4-yl)-5-(trifluoromethyl)-pyrimidin-2-amine]
CNCCc1cccc(-n2cnc(-c3nc(NC4CCN(S(C)(=O)=O)CC4)ncc3C(F)(F)F)c2)c1Cl [Example 467, 4-(1-(2-Chloro-3-(2-(methylamino)ethyl)phenyl)-1H-imidazol-4-yl)-N-(1-(methylsulfonyl)piperidin-4-yl)-5-(trifluoromethyl)pyrimidin-2-amine]
Cc1nc(-c2nc(N[C@H]3CCN(S(C)(=O)=O)C[C@H]3F)ncc2C(F)(F)F)cn1-c1cccc(C#N)c1F [Example 305, 2-Fluoro-3-(4-(2-(((3R,4S)-3-fluoro-1-(methylsulfonyl)piperidin-4-yl)amino)-5-(trifluoromethyl)pyrimidin-4-yl)-2-methyl-1H-imidazol-1-yl)benzonitrile]
Cc1nc(-c2nc(NC3CCN(S(C)(=O)=O)CC3)ncc2C(F)(F)F)cn1-c1ccc(CN2CC(C)C2)cc1F [Example 283, 4-(1-(2-Fluoro-4-((3-methylazetidin-1-yl)methyl)phenyl)-2-methyl-1H-imidazol-4-yl)-N-(1-(methylsulfonyl)piperidin-4-yl)-5-(trifluoromethyl)pyrimidin-2-amine]
CS(=O)(=O)N1CCC(Nc2ncc(C(F)(F)F)c(-c3cn(-c4ccc(CNC5CC5)cc4C#N)cn3)n2)CC1 [Example 343, 5-((Cyclopropylamino)methyl)-2-(4-(2-((1-(methylsulfonyl)piperidin-4-yl)amino)-5-(trifluoromethyl)pyrimidin-4-yl)-1H-imidazol-1-yl)benzonitrile]
CS(=O)(=O)N1CC[C@H](Nc2ncc(C(F)(F)F)c(-c3cn(-c4ccc(C(F)(F)F)cc4C#N)cn3)n2)[C@H](F)C1 [Example 68, 2-(4-(2-(((3R,4S)-3-Fluoro-1-(methylsulfonyl)piperidin-4-yl)amino)-5-(trifluoromethyl)pyrimidin-4-yl)-1H-imidazol-1-yl)-5-(trifluoromethyl)benzonitrile]
CS(=O)(=O)N1CCC(Nc2ncc(C(F)(F)F)c(-c3cn(-c4ccc(CN5CC(O)C5)cc4Cl)cn3)n2)CC1 [Example 199, 1-(3-Chloro-4-(4-(2-((1-(methylsulfonyl)-piperidin-4-yl)amino)-5-(trifluoromethyl)-pyrimidin-4-yl)-1H-imidazol-1-yl)benzyl)-azetidin-3-ol]
CO[C@@H]1CCN(Cc2ccc(-n3cnc(-c4nc(NC5CCN(S(C)(=O)=O)CC5)ncc4C(F)(F)F)c3)c(Cl)c2)C1 [Example 207, (R)-4-(1-(2-Chloro-4-((3-methoxypyrrolidin-1-yl)methyl)phenyl)-1H-imidazol-4-yl)-N-(1-(methylsulfonyl)-piperidin-4-yl)-5-(trifluoromethyl)-pyrimidin-2-amine]
CS(=O)(=O)N1CCC(Nc2ncc(C(F)(F)F)c(-c3cn(-c4ccc(CN5CC6CCC5C6)cc4Cl)cn3)n2)CC1 (centres unmarked) [Example 180, 4-(1-(4-((2-Azabicyclo[2.2.1]heptan-2-yl)methyl)-2-chlorophenyl)-1H-imidazol-4-yl)-N-(1-(methylsulfonyl)piperidin-4-yl)-5-(trifluoromethyl)pyrimidin-2-amine]
Cc1c(-n2cnc(-c3nc(NC4CCN(S(=O)(=O)c5cn(C)cn5)CC4)ncc3C(F)(F)F)c2)ccnc1C#N [Example 7, 3-Methyl-4-(4-(2-((1-((1-methyl-1H-imidazol-4-yl)sulfonyl)piperidin-4-yl)amino)-5-(trifluoromethyl)pyrimidin-4-yl)-1H-imidazol-1-yl)picolinonitrile]
CCN1CCN(Cc2cc(F)c(-n3cnc(-c4nc(N[C@@H]5CCN(S(C)(=O)=O)C[C@H]5F)ncc4C(F)(F)F)c3)c(F)c2)CC1 [Example 392, 4-(1-(4-((4-Ethylpiperazin-1-yl)methyl)-2,6-difluorophenyl)-1H-imidazol-4-yl)-N-((3R,4R)-3-fluoro-1-(methyslulfonyl)piperidin-4-yl)-5-(trifluoromethyl)pyrimidin-2-amine]
CN(C)Cc1ccc(-n2cnc(-c3nc(NC4CCN(S(C)(=O)=O)CC4)ncc3C(F)(F)F)c2)c(C(F)(F)F)c1 [Example 250, 4-(1-(4-((Dimethylamino)methyl)-2-(trifluoromethyl)phenyl)-1H-imidazol-4-yl)-N-(1-(methylsulfonyl)piperidin-4-yl)-5-(trifluoromethyl)pyrimidin-2-amine]
COc1ccc(-n2cnc(-c3nc(NC4CCN(S(C)(=O)=O)CC4)ncc3C(F)(F)F)c2)c(C(F)F)n1 [Example 75, 4-(1-(2-(Difluoromethyl)-6-methoxypyridin-3-yl)-1H-imidazol-4-yl)-N-(1-(methylsulfonyl)piperidin-4-yl)-5-(trifluoromethyl)pyrimidin-2-amine]
COc1ccc(-n2cnc(-c3nc(NC4CCN(S(C)(=O)=O)CC4)ncc3C(F)(F)F)c2)c(C(F)(F)F)n1 [Example 70, 4-(1-(6-Methoxy-2-(trifluoromethyl)pyridin-3-yl)-1H-imidazol-4-yl)-N-(1-(methylsulfonyl)piperidin-4-yl)-5-(trifluoromethyl)pyrimidin-2-amine]
CS(=O)(=O)N1CC[C@H](Nc2ncc(C(F)(F)F)c(-c3cn(-c4cccc(C#N)c4Cl)cn3)n2)[C@H](F)C1 [Example 45, 2-Chloro-3-(4-(2-(((3R,4S)-3-fluoro-1-(methylsulfonyl)piperidin-4-yl)amino)-5-(trifluoromethyl)pyrimidin-4-yl)-1H-imidazol-1-yl)benzonitrile]
[2H]C([2H])([2H])NC(=O)c1ccc(-n2cnc(-c3nc(NC4CCN(S(C)(=O)=O)CC4)ncc3C(F)(F)F)c2)c(C)n1 [Example 131, 6-Methyl-N-(methyl-d)-5-(4-(2-((1-(methylsulfonyl)piperidin-4-yl)amino)-5-(trifluoromethyl)pyrimidin-4-yl)-1H-imidazol-1-yl)picolinamide]
Cc1nc(-c2nc(N[C@H]3CCN(S(C)(=O)=O)C[C@H]3F)ncc2C(F)(F)F)cn1-c1ccc(CNC2CC2)cc1F [Example 408]
